How the values were obtained:
[1] = tested on: Akt phosphorylation at serine 473; experiment: Western blot of Akt phosphorylation at serine 473 (FIG. 12); type: cell-based
B cell function = experiment: TNP-Ficoll immunization, antibody production (FIG. 8); type: in vivo; settings: mice immunized with TNP-Ficoll, 7 days, 70 mg/kg GDC0941, 30, 60 or 120 mg/kg Compound A
Protocol: Mice were immunized with TNP-Ficoll and treated with 1) vehicle; 2) 70 mg/kg GDC0941; 3) 30 mg/kg Compound A; 4) 60 mg/kg Compound A; or 5) 120 mg/kg Compound A for 7 days. Antibody production was measured as a percentage of control group that were treated with vehicle.

Nc1nc2cc(-c3ccc4ncc(C(=O)N5CCOCC5)n4c3)ccc2o1 [Compound A]
Akt phosphorylation at serine 473 ([1]; PTEN-mutant cell line, FIG. 12B): reduced inhibition of Akt phosphorylation at serine 473
Akt phosphorylation at serine 473 ([1]; western blot, FIG. 12A): inhibition of Akt phosphorylation at serine 473
B cell function in vivo (antibody production as percentage of vehicle control) (B cell function): not

From patent US20150087627A1, “COMBINATION OF KINASE INHIBITORS AND USES THEREOF” (Intellikine LLC, priority 2011, published 2015)
